Laboratory results from patent US9238658B2, “Substituted piperidinyl-carboxamide derivatives useful as SCD 1 inhibitors” (Janssen Pharmaceutica NV, priority 2011, dated 2016).
pIC50: −log10 of the molar value.

Target: SCD1 (Rattus norvegicus (Rat), UniProt P07308)
Experiment: SCD1 enzymatic assay in rat liver microsomes (RLM)
Format: biochemical
Conditions: for inhibition at 1 µM: 1 μM test compound
Method: Step 1: Preparation of Rat Liver Microsome (RLM)
Sprague Dawley rats from Charles River (200-225 g) underwent 2-cycle of fast-re-feeding (24-hour fast followed by 24-hour feeding with fat-free high carbohydrate diet, Research Diet, D00042802). The livers were removed and homogenized 1:4 (w/v) with pre-chilled, homogenizing buffer (10 mM Tris-HCl, 0.25 M sucrose, 1 mM EDTA, pH 7.4, supplemented with protease inhibitor cocktail). The homogenate was spun at 12,000×g for 15 min at 4° C. The supernatant was then re-centrifuged at 100,000×g for 60 min at 4° C. The pellet was re-suspended in 2 ml pre-chilled […] potassium phosphate buffer, pH 7.2, 10 mM EDTA at a concentration of 20 mg/ml. The resulting rat liver microsome (RLM) preparation was stored at […].
Step 2: SCD1 Enzymatic Assay in RLM:
The SCD1 enzymatic assay was done in a volume of 50 μL using 10 μg of RLM (prepared as described above) in a 96-well polypropylene plate (enzyme reaction buffer contains 0.1 M K-Phosphate Buffer, 10 mM ATP, 6 mM MgCl2, 1 mM CoA, 1 mM β-NADH, 1.6 mM L-glutathione, 20 μM Stearoyl-CoA). Stearoyl-[9,10-^3H]—CoA (ARC-0390, 1 mCi/mL, 60 Ci/mmol,) was added at a final concentration of 2 μCi/mL. Test compound was then added to the reaction mixture at the selected concentration. After incubation at room temperature for 2 hours, 5 μL 1 N HCl was added to stop the reaction, followed by addition of 25 μL of 10% charcoal. The reaction mixture was then transferred to 96-well Multiscreen plate (Millipore, Cat# MSFCN6B50). [^3H2O] was collected into Opti-plate (PE, Cat #6005290) by centrifuge, at 1,000 rpm for 2 minutes. 150 μL Microscint 40 (PE, cat #6013641) was then added to each well and counted on Topcount for [^3H] counts per minute (cpm). The measured cpm values were fitted with Sigmoidal dose-response curve fit with Graphpad Prism.

Sequence of SCD1 (P07308 whole entry): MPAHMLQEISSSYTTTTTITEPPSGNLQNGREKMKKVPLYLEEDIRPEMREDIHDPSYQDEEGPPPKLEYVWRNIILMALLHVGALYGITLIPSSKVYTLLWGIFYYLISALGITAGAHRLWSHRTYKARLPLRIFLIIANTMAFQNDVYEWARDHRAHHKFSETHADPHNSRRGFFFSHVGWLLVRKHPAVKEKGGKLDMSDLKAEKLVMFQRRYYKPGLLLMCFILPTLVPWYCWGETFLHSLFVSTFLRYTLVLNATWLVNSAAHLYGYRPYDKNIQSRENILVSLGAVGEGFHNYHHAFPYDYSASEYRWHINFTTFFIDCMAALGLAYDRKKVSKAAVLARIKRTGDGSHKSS

Which inhibition at 1 µM does the source give for `CNC(=O)c1cccc(NC(=O)N2CCC(N3C(=O)Cc4ccccc43)CC2)c1` [Compound 1, N-(3-(methylcarbamoyl)phenyl)-4-(2-oxoindolin-1-yl)piperidine-1-carboxamide] here?
Its inhibition at 1 µM is 7%.

With `CCCc1nc2ccc(NC(=O)N3CCC(c4noc5ccc(F)cc45)CC3)cc2o1` [Compound 7, 4-(5-fluorobenzo[d]isoxazol-3-yl)-N-(2-propylbenzo[d]oxazol-6-yl)piperidine-1-carboxamide] as the molecule, how does the pIC50 read?
Its pIC50 is 5.99.

What about the inhibition at 1 µM of the same molecule?
The inhibition at 1 µM was 55%.

With `CCCCc1cc(NC(=O)N2CCC(c3noc4ccc(F)cc34)CC2)ccc1F` [Compound 8, N-(3-butyl-4-fluorophenyl)-4-(5-fluorobenzo[d]isoxazol-3-yl)piperidine-1-carboxamide] as the molecule, how does the inhibition at 1 µM read?
The inhibition at 1 µM was 12%.

How did the inhibition at 1 µM turn out when `CNC(=O)c1cccc(NC(=O)N2CCC(c3noc4cc(F)ccc34)CC2)c1` [Compound 10, 4-(6-fluorobenzo[d]isoxazol-3-yl)-N-(3-(methylcarbamoyl)phenyl)piperidine-1-carboxamide] was run?
Its inhibition at 1 µM is 23%.

For `Cc1csc(NC(=O)N2CCC(c3noc4cc(F)ccc34)CC2)n1` [Compound 11, 4-(6-fluorobenzo[d]isoxazol-3-yl)-N-(4-methylthiazol-2-yl)piperidine-1-carboxamide], which inhibition at 1 µM is on record?
Its inhibition at 1 µM is 40%.

How did the pIC50 turn out when `CCOC(=O)c1csc(NC(=O)N2CCC(N3CCc4ccc(F)cc43)CC2)n1` [Compound 22, ethyl 2-(4-(6-fluoroindolin-1-yl)piperidine-1-carboxamido)thiazole-4-carboxylate] was run?
Its pIC50 is less than 6.00.

What about the inhibition at 1 µM of the same molecule?
Its inhibition at 1 µM is 8%.

What does the source list for `CNC(=O)c1csc(NC(=O)N2CCC(N3CCc4ccc(F)cc43)CC2)n1` [Compound 23, 2-(4-(6-fluoroindolin-1-yl)piperidine-1-carboxamido)-N-methylthiazole-4-carboxamide]?
pIC50: < 6.00; inhibition at 1 µM: 20%

How did the pIC50 turn out when `NC(=O)c1csc(NC(=O)N2CCC(N3CCc4ccc(F)cc43)CC2)n1` [Compound 26, 2-(4-(6-fluoroindolin-1-yl)piperidine-1-carboxamido)thiazole-4-carboxamide] was run?
Its pIC50 is 6.17.

And the inhibition at 1 µM?
The inhibition at 1 µM was 62%.

How did the pIC50 turn out when `CNC(=O)Cc1csc(NC(=O)N2CCC(N3CCc4ccc(F)cc43)CC2)n1` [Compound 28, 4-(6-fluoroindolin-1-yl)-N-(4-(2-(methylamino)-2-oxoethyl)thiazol-2-yl)piperidine-1-carboxamide] was run?
Its pIC50 is less than 6.00.

And the inhibition at 1 µM?
Its inhibition at 1 µM is 22%.

`NC(=O)Cc1csc(NC(=O)N2CCC(N3CCc4ccc(F)cc43)CC2)n1` [Compound 30, N-(4-(2-amino-2-oxoethyl)thiazol-2-yl)-4-(6-fluoroindolin-1-yl)piperidine-1-carboxamide] was tested. Which pIC50 did it give?
Its pIC50 is 6.07.

What about the inhibition at 1 µM of the same molecule?
Its inhibition at 1 µM is 57%.

Which inhibition at 1 µM does the source give for `O=C(Nc1nc(CN2CCCCC2)cs1)N1CCC(N2CCc3ccc(F)cc32)CC1` [Compound 31, 4-(6-fluoroindolin-1-yl)-N-(4-(piperidin-1-ylmethyl)thiazol-2-yl)piperidine-1-carboxamide] here?
Its inhibition at 1 µM is 44%.

`CC(C)(C)[Si](C)(C)OC1CCc2nc(NC(=O)N3CCC(N4CCc5ccc(F)cc54)CC3)sc2C1` (stereo not drawn) [Compound 32, N-(6-((tert-butyldimethylsilyl)oxy)-4,5,6,7-tetrahydrobenzo[d]thiazol-2-yl)-4-(6-fluoroindolin-1-yl)piperidine-1-carboxamide] was tested. Which inhibition at 1 µM did it give?
The inhibition at 1 µM was 31%.

`CC(C)(C)OC(=O)N1CCc2nc(NC(=O)N3CCC(N4CCc5ccc(F)cc54)CC3)sc2C1` [Compound 34, tert-butyl 2-(4-(6-fluoroindolin-1-yl)piperidine-1-carboxamido)-6,7-dihydrothiazolo[5,4-c]pyridine-5(4H)-carboxylate] was tested. Which inhibition at 1 µM did it give?
The inhibition at 1 µM was 35%.

For `CC(=O)N1CCc2nc(NC(=O)N3CCC(N4CCc5ccc(F)cc54)CC3)sc2C1` [Compound 40, N-(5-acetyl-4,5,6,7-tetrahydrothiazolo[5,4-c]pyridin-2-yl)-4-(6-fluoroindolin-1-yl)piperidine-1-carboxamide], which inhibition at 1 µM is on record?
Its inhibition at 1 µM is 46%.

With `CCOC(=O)c1cccc(NC(=O)N2CCC(N3CCc4ccc(F)cc43)CC2)c1` [Compound 41, ethyl 3-(4-(6-fluoroindolin-1-yl)piperidine-1-carboxamido)benzoate] as the molecule, how does the pIC50 read?
The pIC50 was 6.27.

And the inhibition at 1 µM?
The inhibition at 1 µM was 53%.

For `CCOC(=O)c1ccc(NC(=O)N2CCC(N3CCc4ccc(F)cc43)CC2)cc1` [Compound 42, ethyl 4-(4-(6-fluoroindolin-1-yl)piperidine-1-carboxamido)benzoate], which inhibition at 1 µM is on record?
Its inhibition at 1 µM is 21%.

`O=C(Nc1ccc(CO)cc1)N1CCC(N2CCc3ccc(F)cc32)CC1` [Compound 44, 4-(6-fluoroindolin-1-yl)-N-(4-(hydroxymethyl)phenyl)piperidine-1-carboxamide] was tested. Which inhibition at 1 µM did it give?
Its inhibition at 1 µM is 31%.

How did the inhibition at 1 µM turn out when `O=C(Nc1ccc2c(c1)CNCC2)N1CCC(N2CCc3ccc(F)cc32)CC1` [Compound 46, 4-(6-fluoroindolin-1-yl)-N-(1,2,3,4-tetrahydroisoquinolin-7-yl)piperidine-1-carboxamide] was run?
The inhibition at 1 µM was 27%.

`NC(=O)c1cc(NC(=O)N2CCC(N3CCc4ccc(F)cc43)CC2)ccc1CO` [Compound 48, N-(3-carbamoyl-4-(hydroxymethyl)phenyl)-4-(6-fluoroindolin-1-yl)piperidine-1-carboxamide] was tested. Which pIC50 did it give?
Its pIC50 is 6.04.

And the inhibition at 1 µM?
Its inhibition at 1 µM is 55%.

How did the inhibition at 1 µM turn out when `COC(=O)Cc1cnc(NC(=O)N2CCC(N3CCc4ccc(F)cc43)CC2)s1` [Compound 49, methyl 2-(2-(4-(6-fluoroindolin-1-yl)piperidine-1-carboxamido)thiazol-5-yl)acetate] was run?
Its inhibition at 1 µM is 48%.

With `CCOC(=O)Cc1csc(NC(=O)N2CCC(c3noc4ccc(F)cc34)CC2)n1` [Compound 51, ethyl 2-(2-(4-(5-fluorobenzo[d]isoxazol-3-yl)piperidine-1-carboxamido)thiazol-4-yl)acetate] as the molecule, how does the pIC50 read?
Its pIC50 is 6.24.

And the inhibition at 1 µM?
The inhibition at 1 µM was 68%.

For `COC(=O)Cc1cnc(NC(=O)N2CCC(c3noc4ccc(F)cc34)CC2)s1` [Compound 52, methyl 2-(2-(4-(5-fluorobenzo[d]isoxazol-3-yl)piperidine-1-carboxamido)thiazol-5-yl)acetate], which inhibition at 1 µM is on record?
Its inhibition at 1 µM is 15%.

How did the inhibition at 1 µM turn out when `CCN1CCc2nc(NC(=O)N3CCC(N4CCc5ccc(F)cc54)CC3)sc2C1` [Compound 53, N-(5-ethyl-4,5,6,7-tetrahydrothiazolo[5,4-c]pyridin-2-yl)-4-(6-fluoroindolin-1-yl)piperidine-1-carboxamide] was run?
Its inhibition at 1 µM is 34%.

`CCOC(=O)CN1CCc2nc(NC(=O)N3CCC(N4CCc5ccc(F)cc54)CC3)sc2C1` [Compound 56, ethyl 2-(2-(4-(6-fluoroindolin-1-yl)piperidine-1-carboxamido)-6,7-dihydrothiazolo[5,4-c]pyridin-5(4H)-yl)acetate] was tested. Which inhibition at 1 µM did it give?
Its inhibition at 1 µM is 42%.

`NC(=O)CN1CCc2nc(NC(=O)N3CCC(N4CCc5ccc(F)cc54)CC3)sc2C1` [Compound 57, N-(5-(2-amino-2-oxoethyl)-4,5,6,7-tetrahydrothiazolo[5,4-c]pyridin-2-yl)-4-(6-fluoroindolin-1-yl)piperidine-1-carboxamide] was tested. Which inhibition at 1 µM did it give?
The inhibition at 1 µM was 38%.

`CNC(=O)c1cccc(NC(=O)N2CCC(c3c[nH]c4ccccc34)CC2)c1` [Compound 64, 4-(1H-indol-3-yl)-N-(3-(methylcarbamoyl)phenyl)piperidine-1-carboxamide] was tested. Which inhibition at 1 µM did it give?
Its inhibition at 1 µM is 15%.

How did the inhibition at 1 µM turn out when `Cc1csc(NC(=O)N2CCC(c3c[nH]c4ccccc34)CC2)n1` [Compound 65, 4-(1H-indol-3-yl)-N-(4-methylthiazol-2-yl)piperidine-1-carboxamide] was run?
Its inhibition at 1 µM is 2%.
